pKd: −log10 of the molar value. Where “and” joins values, the source holds several entries; their conditions need not be identical. Identical values can stand only once. Like-named read-outs stand apart in the source and are kept apart here. Ends that are not written are not given here. Peptide text beside a SMILES is read from it. * marks the point of attachment. Biotin = O=C1N[C@H]2[C@H](CS[C@H]2CCCCC(=O)*)N1
Experiments:
Test in all cases: SPR binding of MBP-PDZ analyte to immobilised biotinylated peptides
[1] = target: T1, MAGI1-2/6 PDZ domain (Mus musculus, UniProt Q6RHR9)
T1 construct: The cDNA encoding residues 448–572 and 613–752 of mouse MAGI-1 (UniProt acc.: Q6RHR9-1) encoding for MAGI1-2/6; made in house; host or cells: E. coli BL21 DE3
Procedure: (§1) We opted for the surface plasmon resonance (SPR) method to measure these 190 (19 proteins×2 peptide versions×5 PDZ constructs) interactions. In SPR various concentrations of “analytes” (here, PDZ domains fused to the Maltose Binding Protein (MBP)) flow over surfaces presenting attached “ligands” (here, biotinylated peptides). The amount of analyte interacting with the ligand is measured and quantified in response units (RU). The intensity of this signal is proportional to the binding strength of the assayed interaction (Figure 5A). K [drawing 13] were obtained using a 1∶1 interaction model. However, these calculated K [drawing 14] were rather inaccurate especially for weak interactions. Therefore, we preferred to rank the binding strengths of the 190 interactions using normalised RU signals at equilibrium ( [drawing 15] ) rather than K [drawing 16] (see Methods for details). These normalised [drawing 17] values were plotted in form of a heat map (Figure 5B).
(§2) The cDNA encoding residues 448–572 and 613–752 of mouse MAGI-1 (UniProt acc.: Q6RHR9-1) encoding for MAGI1-2/6 (100% identical to human MAGI1-2/6) and MAGI1-3/6 (99% identical to human MAGI1-3/6) PDZ domains, respectively, were inserted into the NcoI/KpnI sites of the pETM-41 expression vector (EMBL) containing a 6×His-MBP tag followed by a TEV protease cleavage site. A similar cloning strategy was adopted for cDNA bearing residues 997–1093, 1097–1193 and 997–1193 of human SCRIB (Uniprot acc.: Q14160-1) encoding for SCRIB-3/4, SCRIB-4/4 PDZ domains and SCRIB-34/4 tandem PDZ construct, respectively.
(§3) Data were collected on a Biacore 2000 instrument (Biacore AB/GE Healthcare Bio-Sciences Corp., Piscataway, NJ, USA) at 25 [drawing 74] C. SPR experiments (ligand immobilisation and binding measurements) have been performed as described in Fournane et al.. Briefly, biotinylated peptides (instead of GST-fused recombinant peptides) were immobilised on CM5 sensorchips on which Neutravidin was previously attached. The MBP-PDZ domain analyte was injected at 8 to 10 different concentrations ranging from 0 up to 30 [drawing 75] M. Data were processed using the BiaEvaluation 3.2 software (Biacore AB/GE Healthcare Bio-Sciences Corp.) using “double referencing” [78] in which sensorgrams were corrected for buffer effects and bulk refractive index changes.
(§4) The steady-state binding signal ( [drawing 76] ) was derived by averaging the signals in a five second window at equilibrium. Steady-state analysis was performed by fitting the average signal [drawing 77] as a function of total MBP-PDZ concentrations, assuming a simple 1∶1 interaction binding isotherm model. […] Reasons for this inaccuracy are likely to be the following: 1. As previously described, several repetitions of all the measurements are required to determine accurate K [drawing 81] . In our case, such repetitions were not achievable in reasonable time due to the large amount of interactions measured in this study. 2. The highest injected analyte concentration restricts the maximal K [drawing 82] (weakest interaction) that can be accurately obtained. 3. A K [drawing 83] is estimated based on a mathematical extrapolation of observed [drawing 84] signals leading to additional uncertainty. Based on these reasons, we considered the calculated K [drawing 85] not as accurate enough to be used for absolute binding strength comparison in this study. We rather performed a relative analysis of binding strengths using directly [drawing 86] signals which are not biased by any mathematical assumption. We focussed on [drawing 87] signals obtained at 10 [drawing 88] M MBP-PDZ concentration, which have been systematically measured in duplicate. The [drawing 89] signal is directly proportional to the molecular weight of the analyte and the amount of immobilised ligand. Therefore, the [drawing 90] signals were normalised taking those into account before being used for binding strength comparison. […]

[2] = target: T2, SCRIB-3/4 PDZ domain (Homo sapiens, UniProt Q14160); settings: tentative KD, SPR Biacore 2000, 25 C, steady state, 1:1 binding isotherm, MBP-PDZ 0-30 µM; to be considered with caution
T2 construct: cDNA bearing residues 997–1093, 1097–1193 and 997–1193 of human SCRIB (Uniprot acc.: Q14160-1); made in house; host or cells: E. coli BL21 DE3
T2 sequence (Q14160 997-1093 isoform Q14160-1): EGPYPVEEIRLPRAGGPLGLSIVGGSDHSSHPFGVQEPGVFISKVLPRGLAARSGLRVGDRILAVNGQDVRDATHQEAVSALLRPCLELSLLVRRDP
Procedure: as §1, §2, §3, §4

[3] = target: T3, SCRIB-34/4 tandem PDZ construct (Homo sapiens, UniProt Q14160); settings: SPR Biacore 2000, 25 C, steady state, 1:1 binding isotherm, MBP-PDZ 0-30 µM, to be considered with caution
T3 construct: residues 997–1093, 1097–1193 and 997–1193 of human SCRIB (Uniprot acc.: Q14160-1); made in house; host or cells: E. coli BL21 DE3
T3 sequence (Q14160 997-1193 isoform Q14160-1): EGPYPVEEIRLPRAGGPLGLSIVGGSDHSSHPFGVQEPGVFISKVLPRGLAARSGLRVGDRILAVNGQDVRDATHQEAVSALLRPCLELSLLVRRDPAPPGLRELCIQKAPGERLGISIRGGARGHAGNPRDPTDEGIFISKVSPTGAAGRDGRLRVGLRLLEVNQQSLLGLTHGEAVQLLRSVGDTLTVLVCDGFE
Procedure: as §1, §2, §3, §4

[4] = target: T4, SCRIB-4/4 PDZ domain (Homo sapiens, UniProt Q14160); settings: SPR Biacore 2000, 25 C, steady state, 1:1 binding isotherm, MBP-PDZ 0-30 µM; to be considered with caution; read-out: tentative KD
T4 construct: residues 997–1093, 1097–1193 and 997–1193 of human SCRIB (Uniprot acc.: Q14160-1); made in house; host or cells: E. coli BL21 DE3
T4 sequence (Q14160 1097-1193 isoform Q14160-1): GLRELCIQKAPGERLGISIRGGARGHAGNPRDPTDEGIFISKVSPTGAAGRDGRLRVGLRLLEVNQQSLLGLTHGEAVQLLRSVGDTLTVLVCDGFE
Procedure: as §1, §2, §3, §4

[5] = target: T5, MAGI1-3/6 PDZ domain (Mus musculus, UniProt Q6RHR9); settings: SPR Biacore 2000, 25 C, steady state, 1:1 binding isotherm, MBP-PDZ 0-30 µM; to be considered with caution; read-out: tentative KD
T5 construct: The cDNA encoding residues 448–572 and 613–752 of mouse MAGI-1 (UniProt acc.: Q6RHR9-1); made in house; host or cells: E. coli BL21 DE3
Procedure: as §1, §2, §3, §4

T1 sequence (Q6RHR9 448-572): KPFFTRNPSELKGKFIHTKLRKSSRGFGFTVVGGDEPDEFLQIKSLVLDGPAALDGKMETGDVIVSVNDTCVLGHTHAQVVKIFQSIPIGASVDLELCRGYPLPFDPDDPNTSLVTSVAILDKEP
T5 sequence (Q6RHR9 613-752): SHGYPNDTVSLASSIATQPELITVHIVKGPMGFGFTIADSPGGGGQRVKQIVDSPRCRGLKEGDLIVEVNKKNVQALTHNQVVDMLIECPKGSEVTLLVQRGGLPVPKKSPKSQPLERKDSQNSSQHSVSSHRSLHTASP

Molecule	pKd ([3]; read-out: tentative KD)	pKd [4]	also measured
CC(C)C[C@H](NC(=O)[C@H](CCC(N)=O)NC(=O)[C@@H](NC(=O)[C@H](CCC(=O)O)NC(=O)[C@H](CCCNC(=N)N)NC(=O)[C@H](CCCNC(=N)N)NC(=O)[C@@H](NC(=O)[C@H](CCCNC(=N)N)NC(=O)[C@H](CO)NC(=O)[C@@H](N)CO)[C@@H](C)O)[C@@H](C)O)C(=O)O [16E6]			pKd ([1]; this study (Kd), Table S3, column this study, SPR): 5.52; pKd [2]: 4.74 and 4.82; pKd ([3]; tentative KD): 5.52
CC(C)C[C@H](NC(=O)[C@H](CCC(N)=O)NC(=O)[C@@H](NC(=O)[C@H](CCC(=O)O)NC(=O)[C@H](CCCNC(=N)N)NC(=O)CNC(=O)[C@H](C)NC(=O)CNC(=O)[C@H](CO)NC(=O)CNC(=O)CCCC[C@@H]1SC[C@@H]2NC(=O)N[C@@H]21)[C@@H](C)O)C(=O)O [16E6_05] (Biotin-GSGAGRETQL-OH)			pKd ([1]; tentative KD, SPR Biacore 2000, 25 C, steady state, 1:1 binding isotherm, MBP-PDZ 0-30 µM, to be considered with caution): 5.15; pKd [2]: 4.92; pKd ([3]; tentative KD): 6.00
CC(C)[C@H](NC(=O)[C@H](Cc1ccc(O)cc1)NC(=O)[C@H](CO)NC(=O)[C@H](CCC(=O)O)NC(=O)[C@H](CCCCN)NC(=O)CNC(=O)[C@H](C)NC(=O)CNC(=O)[C@H](CO)NC(=O)CNC(=O)CCCC[C@@H]1SC[C@@H]2NC(=O)N[C@@H]21)C(=O)O [ABC1_05] (Biotin-GSGAGKESYV-OH)	5.00		
CC(C)C[C@H](NC(=O)[C@@H](NC(=O)[C@H](CCC(=O)O)NC(=O)[C@@H]1CCCN1C(=O)CNC(=O)[C@H](C)NC(=O)CNC(=O)[C@H](CO)NC(=O)CNC(=O)CCCC[C@@H]1SC[C@@H]2NC(=O)N[C@@H]21)[C@@H](C)O)C(=O)N[C@H](C(=O)O)C(C)C [ARHGAP6_05] (Biotin-GSGAGPETLV-OH)		3.98	
CC(C)[C@H](NC(=O)[C@H](CCCNC(=N)N)NC(=O)[C@@H](NC(=O)[C@H](CCC(=O)O)NC(=O)[C@H](CCCCN)NC(=O)CNC(=O)[C@H](C)NC(=O)CNC(=O)[C@H](CO)NC(=O)CNC(=O)CCCC[C@@H]1SC[C@@H]2NC(=O)N[C@@H]21)[C@@H](C)O)C(=O)O [CYSLTR2_05] (Biotin-GSGAGKETRV-OH)	5.00	3.91	
CC[C@H](C)[C@H](NC(=O)CNC(=O)[C@H](C)NC(=O)CNC(=O)[C@H](CO)NC(=O)CNC(=O)CCCC[C@@H]1SC[C@@H]2NC(=O)N[C@@H]21)C(=O)N[C@@H](C)C(=O)N[C@H](C(=O)N[C@@H](CCC(=O)O)C(=O)N[C@H](C(=O)O)C(C)C)[C@@H](C)O [DLL1_05] (Biotin-GSGAGIATEV-OH)		3.05	
C[C@H](NC(=O)CNC(=O)[C@H](CO)NC(=O)CNC(=O)CCCC[C@@H]1SC[C@@H]2NC(=O)N[C@@H]21)C(=O)NCC(=O)N[C@@H](CCCCN)C(=O)N[C@@H](CCC(=O)O)C(=O)N[C@H](C(=O)N[C@@H](CO)C(=O)N[C@@H](Cc1ccccc1)C(=O)O)[C@@H](C)O [GLUT7_05] (Biotin-GSGAGKETSF-OH)	5.30		
CC(C)[C@H](NC(=O)[C@@H](NC(=O)[C@@H](NC(=O)[C@H](CCC(=O)O)NC(=O)[C@H](CCCCN)NC(=O)CNC(=O)[C@H](C)NC(=O)CNC(=O)[C@H](CO)NC(=O)CNC(=O)CCCC[C@@H]1SC[C@@H]2NC(=O)N[C@@H]21)[C@@H](C)O)C(C)C)C(=O)O [MARCH3_05] (Biotin-GSGAGKETVV-OH)	5.15		
CC(C)[C@H](NC(=O)[C@@H](NC(=O)[C@@H](NC(=O)[C@H](CCC(=O)O)NC(=O)[C@@H](NC(=O)CNC(=O)[C@H](C)NC(=O)CNC(=O)[C@H](CO)NC(=O)CNC(=O)CCCC[C@@H]1SC[C@@H]2NC(=O)N[C@@H]21)C(C)C)[C@@H](C)O)C(C)C)C(=O)O [MAS_05] (Biotin-GSGAGVETVV-OH)	4.80	3.36	
CC(C)C[C@H](NC(=O)[C@@H](NC(=O)[C@H](CCC(=O)O)NC(=O)[C@H](CCCCN)NC(=O)CNC(=O)[C@H](C)NC(=O)CNC(=O)[C@H](CO)NC(=O)CNC(=O)CCCC[C@@H]1SC[C@@H]2NC(=O)N[C@@H]21)[C@@H](C)O)C(=O)N[C@H](C(=O)O)C(C)C [NET1_05] (Biotin-GSGAGKETLV-OH)	4.82		pKd [5]: 4.64
CC[C@H](C)[C@H](NC(=O)CNC(=O)[C@H](C)NC(=O)CNC(=O)[C@H](CO)NC(=O)CNC(=O)CCCC[C@@H]1SC[C@@H]2NC(=O)N[C@@H]21)C(=O)N[C@@H](CCC(=O)O)C(=O)N[C@@H](CO)C(=O)N[C@@H](CC(N)=O)C(=O)N[C@H](C(=O)O)C(C)C [TANC1_05] (Biotin-GSGAGIESNV-OH)	5.05		
CC[C@H](C)[C@H](NC(=O)[C@@H](NC(=O)[C@H](CCC(=O)O)NC(=O)[C@H](Cc1c[nH]cn1)NC(=O)CNC(=O)[C@H](C)NC(=O)CNC(=O)[C@H](CO)NC(=O)CNC(=O)CCCC[C@@H]1SC[C@@H]2NC(=O)N[C@@H]21)[C@@H](C)O)C(=O)N[C@H](C(=O)O)C(C)C [TMEM215_05] (Biotin-GSGAGHETIV-OH)	4.82		
CNTVTVETVV [MAS_10]	5.52		

Source: publication PMC3206016, “Putting into Practice Domain-Linear Motif Interaction Predictions for Exploration of Protein Networks” (PLoS ONE, 2011)
